Source: US8318717B2, “Compounds modifying apoptosis” (2cureX, priority 2005, dated 2012)

Columns and labels:
[1] = test system: primary colon cancer cells from patients and colon cancer lines (i.e. HT29); assay: Cell penetration, IAP inhibition and apoptosis in colon cancer cells; assay type: cell-based, human
XIAP = target: T1, XIAP (Homo sapiens, UniProt P98170); assay: Pull down of XIAP from cell lysates by compound-carrying beads (Western); assay type: binding
T1 construct: pull down one member of the IAP family, XIAP from cell lysates prepared from various tissues; endogenous in cells; host or cells: Hek293 cells, Hela cells, colon tissue (lysates)
Experimental: Beads displaying compound 2CX2.201 or 2CX4.401 respectively are compared with regard to their ability to bind and pull down one member of the IAP family, XIAP from cell lysates prepared from various tissues.
• Positive control resin beads carrying a tetra-peptide (H-Ala-Val-Pro-Phe-Bead) mimicking the N-terminal part of Smac that binds to BIR3 domain of XIAP was prepared. The method of preparation was analogous to the general procedure described in example 2 with the change that only the four specific peptides were included in each of the four couplings and that the split and mix step was omitted. • Resin beads carrying 2CX2.201 was prepared as described above. • Resin beads carrying 2CX4.401 was prepared as described above. Lysate Preparation: • Hek293 and Hela: Cells are scraped off the plate in Phosphate Buffered Saline (PBS) at 4° C. • Colon tissue: Is blended into a homogeneous suspension in PBS at 4° C. • All cell suspensions are centrifuged for 10 min at 3000 rpm and supernatant is discarded. • Pellet is re-suspended in lysis buffer (50 mM Tris-HCL, 1 mM EGTA, 1 mM EDTA, 1% Triton-X W/W, 1 mM Sodium orthovanadate, 50 mM Sodium fluoride, 5 mM Sodium pyrophosphate, 1 mM MDTT, “Complete” (protease inh.) One tablet for 50 ml) • Incubate for 20 min at 4° C. • Centrifuge at 32.000 G for 30 min, 4° C. • Move supernatant to new vial (discard pellet) • Measure protein concentration Pull Down: • Bead/lysate ratio: 20 ul beads/10 mg lysate (equivalent to one pull down) • Beads are washed in 1 ml lysis buffer×2 • Lysate+beads are mixed and incubated for 1 hrs at 4° C., shaking • Beads are washed ×4 in 1 ml Lysis buffer w. […]

[2] = test system: human colorectal adenocarcinoma cell line HT-29; assay: Xenograft study, HT-29 tumours in nude mice; assay type: in vivo, nude BALB/c mice
Source text: Female athymic nude BALB/c mice (BALB/cABom-Foxn1^nu, CA.Cg-Foxn1^nu) are obtained from Taconic Ltd, Ry, Denmark and maintained in the animal facility. Animals are approximately 6 weeks old with an initial body weight of 17-18 g when used for the experiments. The mice are housed in microisolators (filter top cages, Tecniplast, Buguggiata, Italy) under pathogen-free conditions with a 12-h light/12-h dark schedule and fed autoclaved standard chow (Altromin #1324, Lage, Germany) and water ad libitum throughout the experiment. All animals are handled under sterile conditions and maintained in a separate facility. The Danish Experimental Animal Inspectorate has approved the experimental protocol and all animal experiments are performed according to the ethical standards required by the UKCCCCR Guidelines {UKCCCR 1998}. During the study blood samples is taken one time per week. The number of animals per group (control-treatment) should be 8 animals at a minimum. Thirty-fifty percent more animals are inoculated with cells than needed in the study in order to be able to exclude animals in which there is no tumour take—i.e. the tumour fails to establish and grow progressively.
The human colorectal adenocarcinoma cell line HT-29 (HTB-38) has been obtained from the American Type Culture Collection (ATCC) Manassas, Va., USA. Tumour cells growing exponentially are harvested by brief incubation with 0.05% Trypsin-EDTA solution suspended in new medium for injection.
Tumour xenografts are initiated by subcutaneous (s.c.) injection of 10^7 cells into the left flank of nude mice. […]
Tumour volume, food consumption, body weight is measured twice a week. […] Evaluation of tumour growth: The tumours are measured every 3-4 day with a calliper. Baseline tumour weight are calculated by using the following formula mg=(L×W^2)/2 where L=length, W=width and these are perpendicular to each other {Teicher BA 1997}. […]
All data are expressed as the mean±SEM, and statistical analyses of the tumour data are performed using t-test. […]

[3] = Stability in serum from mice; assay type: in vitro ADME

T1 sequence (P98170 whole entry): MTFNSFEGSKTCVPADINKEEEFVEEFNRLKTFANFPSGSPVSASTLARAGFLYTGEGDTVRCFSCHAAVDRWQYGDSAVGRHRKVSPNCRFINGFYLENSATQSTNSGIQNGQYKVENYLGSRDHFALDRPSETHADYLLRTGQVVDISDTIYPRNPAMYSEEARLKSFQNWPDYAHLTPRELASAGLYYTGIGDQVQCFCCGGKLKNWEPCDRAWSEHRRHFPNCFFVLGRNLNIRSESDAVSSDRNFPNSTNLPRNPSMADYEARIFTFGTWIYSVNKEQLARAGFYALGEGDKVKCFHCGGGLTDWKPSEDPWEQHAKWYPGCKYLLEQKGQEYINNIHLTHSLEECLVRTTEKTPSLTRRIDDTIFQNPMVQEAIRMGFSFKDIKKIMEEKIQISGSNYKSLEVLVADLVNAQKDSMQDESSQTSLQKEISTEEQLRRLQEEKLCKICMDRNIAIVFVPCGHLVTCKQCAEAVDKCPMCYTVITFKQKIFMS

CN[C@@H](C)C(=O)N[C@H](C(=O)N1C[C@@H](NCC2CCCCC2)C[C@H]1C(=O)N[C@@H](Cc1ccccc1)C(N)=O)C(C)C [2CX4.401]
apoptosis [1]: promote apoptosis | inhibition of IAPs [1]: inhibits IAPs | affinity for XIAP, comparison of the two compounds (XIAP; conclusion from pull down experiments): significant higher affinity than that of 2CX2.201 | pull down of XIAP (FIG. 5a) (XIAP; lysates of Hek293, Hela, colon tissue, compound on beads): approximately the same degree as the endogenous AVPF peptide | pull down of XIAP (FIG. 5b) (XIAP; prolonged exposure time to increase sensitivity): weaker effect | effect on Paclitaxel efficacy (tumour weight) ([2]; combination with paclitaxel, 29 days after inoculation, FIG. 4): significantly potentiated the effect of Paclitaxel | tumour weight relative to that observed with Paclitaxel alone ([2]; combined treatment: 2CX4.401 0.0625 mg/h osmotic pump + paclitaxel 25 mg/kg s.c. once a week, 29 days after inoculation): approx. 15% | tumour growth in mono-therapy ([2]; mono-therapy, osmotic pump 0.0625 mg/h, 29 days): does not affect tumour growth | stability in serum [3]: high degree of stability
